Experimental data published in patent US20130274233A1, “MODULATORS OF HEDGEHOG SIGNALING PATHWAY” (priority 2012, published 2013).
Where a name gives a salt, the structure may show the parent alone.

Columns and labels:
Hh pathway activity [1] = assay: Gli-luciferase reporter assay, Shh-induced Hh pathway activity (ShhLightII cells); format: cell-based; conditions: for inhibition of Shh-induced Hh pathway activity, Gli-luciferase reporter: Shh stimulation
Text: (§1) NIH/3T3 cells were maintained in DMEM containing 10% (v/v) calf serum, penicillin, streptomycin, and L-glutamine. HEK293, L, cos 7, and suFU−/− mouse embryonic fibroblast cells were maintained in DMEM containing 10% (v/v) fetal bovine serum, penicillin, streptomycin, and L-glutamine. Smo::EGFP, SmoM2::GFP, and Ivs::tagRFPT were cloned into pBabe to generate retroviral particles for infection. Smo::EGFP/Ivs::tagRFPT and SmoM2::GFP/Ivs::tagRFPT stable cell lines were generated through viral infection of NIH/3T3^12. A ShhLightII Gli reporter cell line was obtained from the American Type Culture Collection (ATCC) and used in luciferase reporter assays to measure Hh pathway activity. The cell line contains a stably integrated Gli-responsive Firefly luciferase reporter and a constitutive Renilla luciferase expression construct^33. Subclones expressing Smo or SmoM2 in ShhLightII cells were used for chemical epistasis analyses.
(§2) Hh activity assays were performed using ShhLightll cells, Smo/Lightll cells, SmoM2/Lightll cells, and suFU−/− mouse embryonic fibroblasts. In the suFU−/− cells, Hh activity was measured after co-transfection with Gli driven firefly luciferase and TK-renilla luciferase reporters^41. Wnt activity was measured in 293 cells co-transfected with Top-flash and TK-renilla luciferase reporters^42. Cells were cultured and treated in 96 well assay plates (Corning) and incubated with Duo-Glo luciferase substrates (Promega) to measure firefly and renilla luciferase activity sequentially using a Top Count NX Microplate Scintillation and Luminescence Counter (Perkin Elmer). The renilla luciferase signal was used to normalize the firefly reporter activity.
(§3) ShhLightII cells and SmoM2/LightII cells were cultured and treated in 96 well assay plates (Corning) and incubated with Duo-Glo luciferase substrates (Promega) to sequentially measure firefly and renilla luciferase activity. Smo, or GFP, expression plasmids were co-transfected into 3T3 cells together with a Gli-responsive firefly reporter and a TK-renilla luciferase reporter contruct to monitor effects of Smo overexpression. Co-transfection of the two reporter constructs was conducted in assays measuring Hh pathway activity in suFU−/− cells. Wnt activity was measured following co-transfection of a Top-flash and renilla luciferase reporter. In both Hh and Wnt activity assays, renilla luciferase reporter activity, or mass of protein, was used to normalize expression values. Luciferase signal was read by TopCount NX Microplate Scintillation and Luminescence Counter (Perkin Elmer). Quantitative PCR probes for Ptch1, Gli1, and β-actin were purchased from Applied Biosystems. Reactions and measurements were performed using on an Applied Biosystems 7900HT at Harvard FAS Center of System Biology. β-actin was used to normalize Ptch1 and Gil1 values.

Smo::EGFP [2] = target: T1, Smo::EGFP (Homo sapiens, UniProt Q99835); assay: High content assay of Shh-induced Smo::EGFP accumulation in the primary cilium (Smo::EGFP/Ivs::tagRFPT NIH/3T3 cells); format: cell-based; conditions: for inhibition of Shh-induced Smo::EGFP accumulation in the PC: in the presence of Shh; for accumulation of Smo on the PC: in either the presence or absence of Shh; for Smo antagonist activity in SAR assays: Smo::EGFP/Ivs::tagRFPT cells primed with compounds for 3 hours before adding Shh
T1 construct: expressed in transfected cells
Text: as §1
(§4) Cells were cultured and treated in 384-well imaging plate precoated with poly-D-Lysine (Greiner Bio-one), fixed with 4% paraformaldehyde (Electron Microscopy Sciences), and stained with Hoechst (Invitrogen). Images were collected using Opera High Content Screening System (Perkin Elmer). Activityl)ase (IDBS Inc, Emeryvill, Calif.) and Pipeline Pilot (Accelrys, Inc. San Diego, Calif.) were used for high content screening data management and analysis. Acapella 2.0 software (Evotec Technologies/PerkinElmer) was used to perform multi-parametrical high content image quantification. All the images for comparison were scanned with identical microscopic settings and analyzed with the same input parameters.
(§5) Acapella 2.0 software (Evotec Technologies/PerkinElmer) was used to perform multi-parametric high content image quantification. Our image analysis script used Ivs::tagREPT to first determine the location of the PC and then Smo::EGFP to quantify the level of Smo present in the cilium.
(§6) The inventors used the spot-finding algorithm in the RFP channel to find Ivs-rich spots. Each non-overlapping spot was based on a maximum 8 pixel-radius (when using a 40× objective) around a central intensity peak of 5 pixels. A distance of at least 10 pixels was required between adjacent spot centers. Spot peaks had to exceed thresholds of relative intensity compared to the remaining body of the spot as well as to the entire image. The average, maximum and total RFP intensity of each spot were measured. The spots with sufficiently high absolute maxima to pass the selected threshold were classified as positive spots. To form candidate cilia, the inventors selected the brightest 15% of the pixels in each positive spot and merged those pixels into objects so that the brightest parts of adjacent spots could form single, larger cilia-shaped objects. To qualify the candidate cilia as true Ivs-positive cilia, the width of the objects created from merging the brightest pixels in each spot had to be at least 2 pixels and the length to half-width ratio had to exceed 3. (i.e. a 3-pixel long by 2-pixel wide cilium was the minimum accepted cilium size and the length had to be at least 1.5 fold of the width). The mean GFP intensity within these Ivs-positive cilia was used to estimate the ciliary level of Smo protein. The inventors subtracted the background of the mean GFP intensity in the 3-pixel wide area around each candidate cilium to avoid some false positives. Those Ivs-positive cilia that exceed the final mean GFP intensity threshold set for each experiment were deemed Smo-positive cilia.
Hoechst staining was used to determine the total number of nuclei per well.
Measurements of the geometry of the cilia as well as the total fluorescent intensities of each cilium in the Smo- and Ivs-channels were used to determine if any of the compounds were having unusual effects on cilia size, intensity or frequency of observation or combinations of all three characteristics.

Smo::EGFP [3] = target: T1, Smo::EGFP; assay: High content screen for compound-induced Smo accumulation at the primary cilium (no Hh ligand); format: cell-based
Procedure: Cells were cultured and treated in 384-well imaging plate precoated with poly-D-Lysine (Greiner Bio-one), fixed with 4% paraformaldehyde (Electron Microscopy Sciences), and stained with Hoechst (Invitrogen). Images were collected using Opera High Content Screening System (Perkin Elmer).

Hh pathway activity [4] = assay: Priming and withdrawal of compound followed by Shh stimulation, Gli-luciferase reporter (hypersensitivity); format: cell-based; conditions: priming 24 hours, washout, then Shh (or SAG) stimulation
Procedure: as §2
Following the removal of drug containing medium, and extensive washing, cells were stimulated with either Hh ligand, or the direct-binding Smo agonist SAG^17,18.
as §3

Smo = assay: Bodipy-cyclopamine competition assay in Cos 7 cells expressing Smo; format: binding; conditions: cells over-expressing Smo, 5 nM Bodipy-cyclopamine
Procedure: Cos 7 cells were transfected with a plasmid co-expressing Smo and a nuclear localized form of tagRFPT (pCIT-Smo). An empty parental construct (pCIT), and a construct that co-expresses SmoM2, were used as controls to assess specificity and background noise. Three days after transfection, cells were incubated with 5 nM Bodipy-cyclopamine, with or without other compounds for 1 hour at 37 °C. Cells were washed, fixed and stained with Hoechst. Images were collected by an Opera High Content Screen System. Bodipy fluorescence was quantified specifically for transfected cells (determined by red tagRFPT+ nucleus) using a program developed by the authors with Acapella 2.0 software. All of the images were scanned with identical microscopic settings and analyzed with the same input parameters.
Cos 7 cells were transfected with a plasmid that co-expresses Smo and a nuclear localized tagRFPT marker (pCIT-Smo). The empty parental construct (pCIT) and a construct that co-express SmoM2 were used as controls to assess specificity and background signal. Three days after transfection, cells were incubated with 5 nM Bodipy-cyclopamine, with or without additional compounds, for 1 hour at 37° C. Cells were then fixed and stained with Hoechst. Images were collected with the Opera High Content Screen System. Fluorescence values were assessed in transfected cells (red nuclei) with a program developed by the authors using Acapella 2.0 software. All of images were scanned with identical microscopic setting and analyzed with the same input parameters.

primary cilium (PC) = assay: Primary cilium markers in the high content assay (Ivs::tagRFPT, Arl13b, acetylated tubulin); format: cell-based; conditions: Ivs::tagRFPT and other PC markers
Text: as §5
as §6, with “cilia. […]” for “cilia.”
Cells were cultured and treated in 384-well imaging plate precoated with poly-D-Lysine (Greiner Bio-one), fixed with 4% paraformaldehyde (Electron Microscopy Sciences), and stained with Hoechst (Invitrogen). […] Acapella 2.0 software (Evotec Technologies/PerkinElmer) was used to perform multi-parametric image quantification. All the comparative images were scanned with identical microscopic setting and analyzed with the same input parameters.

Wnt signaling activity = assay: Wnt Top-flash reporter assay; format: cell-based; conditions: with or without Wnt3a
Procedure: as §2, §3

Hh pathway activity [5] = assay: Gli-luciferase reporter assay, Hh pathway activation by compound alone (NIH/3T3 cells); format: cell-based; conditions: 1 μM SAG
Procedure: as §3

SmoM2 = assay: Gli-luciferase reporter induced by SmoM2::GFP overexpression (SmoM2/LightII cells); format: cell-based; conditions: SmoM2 overexpression
Text: as §1, §2, §3

SmoM2::GFP = target: T2, SmoM2::GFP (Homo sapiens, UniProt Q99835, W535L); assay: Ciliary localization of SmoM2::GFP (3T3/SmoM2::GFP Overexpression/Ivs::tagRFPT); format: cell-based; conditions: SmoM2::EGFP overexpressing cells
T2 construct: expressed in transfected cells
Text: as §1, §4, §5

T1 sequence (Q99835 28-787): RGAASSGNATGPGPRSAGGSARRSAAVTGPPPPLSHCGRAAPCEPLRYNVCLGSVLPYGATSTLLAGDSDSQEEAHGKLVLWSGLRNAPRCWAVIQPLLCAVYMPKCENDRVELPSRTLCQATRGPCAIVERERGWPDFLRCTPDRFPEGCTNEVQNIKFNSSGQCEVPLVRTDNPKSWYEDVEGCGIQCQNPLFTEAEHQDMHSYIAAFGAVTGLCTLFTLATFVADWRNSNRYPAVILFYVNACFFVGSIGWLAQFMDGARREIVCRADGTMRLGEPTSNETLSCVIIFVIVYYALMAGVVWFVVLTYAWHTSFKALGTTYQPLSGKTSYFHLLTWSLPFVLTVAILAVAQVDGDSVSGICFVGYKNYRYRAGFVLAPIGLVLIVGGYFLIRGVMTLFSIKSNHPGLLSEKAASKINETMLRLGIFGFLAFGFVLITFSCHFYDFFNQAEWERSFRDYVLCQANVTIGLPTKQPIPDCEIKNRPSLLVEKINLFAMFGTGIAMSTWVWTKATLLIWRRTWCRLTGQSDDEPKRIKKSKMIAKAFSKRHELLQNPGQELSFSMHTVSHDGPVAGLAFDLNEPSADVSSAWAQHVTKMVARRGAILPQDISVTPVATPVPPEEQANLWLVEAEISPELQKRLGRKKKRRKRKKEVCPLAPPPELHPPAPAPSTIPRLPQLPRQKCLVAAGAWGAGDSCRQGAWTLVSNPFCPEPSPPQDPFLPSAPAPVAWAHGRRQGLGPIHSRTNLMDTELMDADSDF
T2 sequence (Q99835 28-787 W535L): as the sequence (Q99835 28-787) above, with W508L counted along it

With `CC(=O)N1CCN(c2ccc(OCC3COC(Cn4ccnc4)(c4ccc(Cl)cc4Cl)O3)cc2)CC1` (centres unmarked) [KCZ, Ketoconazole] the “inhibition of Shh-induced Hh pathway activity, Gli-luciferase reporter” value (from here on “inhibition … Gli-luciferase reporter”) (Hh pathway activity [1]) was “inhibited” and the “inhibition of Shh-induced Smo::EGFP accumulation in the PC” value (shortened to “inhibition … in the PC”) (Smo::EGFP [2]) was “inhibited”.

For `CC/C(=C(/CC)c1ccc(O)cc1)c1ccc(O)cc1` [diethylstilbestrol], the “accumulation of Smo on the PC” value (Smo::EGFP [2]) was “did not alter the accumulation of Smo on the PC”.

In the case of `CC1=C2C[C@H]3[C@@H](CC=C4C[C@@H](O)CC[C@@]43C)[C@@H]2CC[C@]12O[C@@H]1C[C@H](C)CN[C@H]1[C@H]2C` [Cyc, Cyclopamine], the “Hh pathway inhibition by the antagonist in the presence of FA” value (Hh pathway activity [1]; Gli-luciferase induction and Smo ciliary localization, 10 μM FA) is reported as “dramatically reduced”, the “induction of Smo accumulation in the PC by compound alone” value (Smo::EGFP [3]) is reported as “induces its accumulation in the PC” and the “hypersensitivity to Hh pathway stimulation after priming with and removal of compound, Gli-luciferase” value (Hh pathway activity [4]) is reported as “elevated signaling response”. The “competition of Bodipy-Cyc binding to Smo” value (Smo) was “effective competitor”.

With `CC[C@]1(O)C[C@@H]2CN(CCc3c([nH]c4ccccc34)[C@@](C(=O)OC)(c3cc4c(cc3OC)N(C)[C@H]3[C@@](O)(C(=O)OC)[C@H](OC(C)=O)[C@]5(CC)C=CCN6CC[C@]43[C@@H]65)C2)C1` [vinblastine] the “effect on primary cilium markers / ciliary structure” value (primary cilium (PC)) was “decrease in the Ivs::tagRFPT ciliary signal” and the “inhibition … Gli-luciferase reporter” value (Hh pathway activity [1]) was “appear as Hh pathway antagonists”.

Molecule `CC(C)c1ccc(/C=N/NC(=O)c2ccc(O)cc2)cc1` [GSK4716] has an IC50 (Hh pathway activity [1]; Mus musculus, Shh Light II, 3T3/Shh-LightII cells, stimulus Shh, read-out: IC50, inhibition of Shh-induced expression of Gli-luciferase reporter) of 10 µM and an IC50 (Smo::EGFP [2]; 3T3/Smo::GFP/Ivs::tagRFPT cells, stimulus Shh, read-out: IC50, inhibition of Shh-induced Smo::GFP ciliary accumulaton) of 2 µM.

For `CCCC1O[C@@H]2C[C@H]3[C@@H]4CCC5=CC(=O)C=C[C@]5(C)[C@H]4[C@@H](O)C[C@]3(C)[C@]2(C(=O)CO)O1` (some centres unmarked) [Bud, Budesonide], the “effect on Wnt pathway reporter activity” value (Wnt signaling activity) was “no effect”.

With `O=C(N/N=C/c1ccccc1)c1ccc(O)cc1` [RL-0070462] the “Smo antagonist activity in SAR assays” value (Smo::EGFP [2]) was “dramatically impaired the activity”.

For `Cl.Cl.Clc1ccccc1CNCC1CCC(CNCc2ccccc2Cl)CC1` (centres unmarked) [AY9944], the “inhibition … Gli-luciferase reporter” value (Hh pathway activity [1]) was “inhibited” and the “inhibition … in the PC” value (Smo::EGFP [2]) was “inhibited”.

With `CC[C@H](c1ccc(O)cc1)[C@@H](CC)c1ccc(O)cc1` [hexestrol] the “accumulation of Smo on the PC” value (Smo::EGFP [2]) was “did not alter the accumulation of Smo on the PC”.

`CNC1CCC(N(Cc2cccc(-c3ccncc3)c2)C(=O)c2sc3ccccc3c2Cl)CC1` (centres unmarked) [SAG] was tested, and the “induction of Smo accumulation in the PC by compound alone” value (Smo::EGFP [3]) was “induces its accumulation in the PC” and the “transcriptional response in Gli-luciferase reporter assay” value (Hh pathway activity [5]) was 25 fold.

`CCN(CC)c1ccc(/C=N/NC(=O)c2ccccc2)cc1` [RL-0070463] was tested, and the “Smo antagonist activity in SAR assays” value (Smo::EGFP [2]) was “moderately decreased the activity”.

`CC(C)C(=O)OCC(=O)[C@@]12O[C@H](C3CCCCC3)O[C@@H]1C[C@H]1[C@@H]3CCC4=CC(=O)C=C[C@]4(C)[C@H]3[C@@H](O)C[C@@]12C` [Cic, Ciclesonide] was tested, and the “effect on primary cilium markers / ciliary structure” value (primary cilium (PC)) was “did not disrupt”, the “inhibition … Gli-luciferase reporter” value (Hh pathway activity [1]) was “inhibited” and the “inhibition … in the PC” value (Smo::EGFP [2]) was “inhibition of Smo accumulation in the PC”. The “effect on SmoM2 driven Hh pathway activity, transcriptional reporter” value (SmoM2) was “attenuated” and the “effect on SmoM2 ciliary localization” value (SmoM2::GFP) was “attenuated”.

`N#CC(C(=O)c1ccc(Cl)cc1Cl)c1nc2ccccc2c(=O)[nH]1` (centres unmarked) [HPI-4] was tested, and the “effect on primary cilium markers / ciliary structure” value (primary cilium (PC)) was “decrease in the Ivs::tagRFPT ciliary signal” and the “inhibition … Gli-luciferase reporter” value (Hh pathway activity [1]) was “appear as Hh pathway antagonists”.

`CC/C(=C(\c1ccccc1)c1ccc(OCCN(C)C)cc1)c1ccccc1` [tamoxifen citrate] was tested, and the “accumulation of Smo on the PC” value (Smo::EGFP [2]) was “did not alter the accumulation of Smo on the PC”.

For `CCN(CC)c1ccc(/C=N/NC(=O)c2ccc(OC)cc2)cc1` [RL-0070464], the “Smo antagonist activity in SAR assays” value (Smo::EGFP [2]) was “can be tolerated”.

In the case of 4-hydroxytamoxifen, the “accumulation of Smo on the PC” value (Smo::EGFP [2]) is reported as “did not alter the accumulation of Smo on the PC”.
